Assay results taken from US20120035221A1, “Method of Fungal Pathogen Control in Grass or Turf” (priority 2004, published 2012).

Tests used:
[1] = test system: Pythium aphanedermatum; assay: Pythium infection of bentgrass sod flats (Example 7); format: in vivo; conditions: for % Pythium: imidacloprid alone 481 g/Ha
Method: Bentgrass sod var. ‘Crenshaw’ was cut and placed in 6″×7″ (15 cm×17.5 cm) peat flats containing steam-sterilized 80/20 greens mix during the spring. To create conditions favorable for the development of Pythium, the flats were watered daily with an overhead misting system to provide conditions favorable to the development on disease. In addition, plots were fertilized weekly with 100 ml of a 244 ppm 20-20-20 Regal Green fertilizer solution. Imidacloprid at 481 g/Ha was applied four days after being placed in the flats. Fungicides were applied ten days after application of imidacloprid with a CO2 backpack sprayer at 2.0 gal. /1000 ft^2 (i.e., 81.5 liters/1000 m^2) using a single 8003E nozzle. Plots were inoculated with 2 one-inch […] sections of Pythium aphanedermatum-infested fescue leaves three days after application of the fungicides, and the percent infection in the plots was measured for the next 20 days. Results are presented in Table 5 (where A+a number represents days after application of imidacloprid).

[2] = test system: grass; assay: Grass pot trial, dry weight and visual vigor under powdery mildew (Example 3); format: in vivo; conditions: 8 WAT, 1 to 5 scale, powdery mildew infestation, in words
Text: Six-inch (15-cm) diameter pots were filled to the rim with ProMix® BX potting soil and leveled off. Grass seed (0.5 g) was distributed evenly over the whole mix surface. The seed was watered in very gently. The grass was fertilized once 17 days later with Peters 20-10-20 at 100 ppm. The first cut was done on 11 days later; the grass was allowed to re-grow and cut 26 days later. Cutting was done at 2 in. (5 cm) height, using a round plastic cylinder that fit over the pot. The cut was made with hedge sheers and finished with scissors. Treatments were applied one day later using a volume of 20 ml per pot, followed with 117 ml of water/pot. The grass clippings were harvested an.d dried for dry weight determination 2 weeks after treatment (“WAT”) and 4 WAT. The grass was rated visually for vigor 8 WAT, using a 1 to 5 scale, before harvesting at the soil line. Dry weight and vigor data were subjected to analysis of variance (Fisher's Protected LSD, P=0.05).
The grass had germinated well within 30 days. Powdery mildew was noticed on some plants at 43 days after seeding, and became widespread in the plot. The powdery mildew coating appeared to grow more densely on the untreated plants. […] The invasion of the powdery mildew prevented the assessment of imidacloprid in the absence of pest pressure but it was serendipitously discovered that imidacloprid could have an effect on disease resistance in turf.

[3] = test system: Pythium aphandermatum; assay: Pythium infection of bentgrass 'Crenshaw' turf flats (Example 2); format: in vivo, P. aphanidermatum; conditions: imidacloprid alone 481 g/Ha
Method: Bentgrass var. ‘Crenshaw’ was seeded in 10 in.×12 in. (ca. 25 cm×30 cm) peat flats containing steam sterilized 80/20 greens mix. Flats were watered daily with an overhead misting system. Plots were fertilized on 26 days later with 200 ml of a 288 ppm 20-20-20 Regal Green fertilizer solution. Treatments were applied with a CO2 backpack sprayer at 2.0 gal./1000 ft^2 (i.e., 81.5 liters/1000 m^2), with a single 8003E nozzle. lmidacloprid (481 g/Ha) was applied the same day and mancozeb fungicide was applied one week later. Two doses of each fungicide were tested. Plots were inoculated with Pythium aphandermatum 2 days after the fungicides were applied by placing two 1-in (2.5-cm) pieces of infested fescue leaves on each flat. Results are presented in Table 2 (where B+a number represents days after application of the herbicide component).

[4] = test system: Sclerotinia homoeocarpa (Dollar Spot); assay: Dollar Spot infection of bentgrass 'Crenshaw' turf flats (Example 1); format: in vivo; conditions: for % Dollar Spot: imidacloprid alone 481 g/Ha
Method: Bentgrass var. ‘Crenshaw’ was seeded in 10 in.×12 in. (25 cm×30 cm) peat flats containing steam sterilized 80/20 greens mix. Flats were watered daily with an overhead misting system. Plots were fertilized with 200 ml of a 288 ppm 20-20-20 Regal Green fertilizer solution 23 days later. lmidacloprid (481 g/Ha) was applied according to the Merit® insecticide label the same day that fertilizer was applied. Fungicide treatments were applied 7 days later with a CO2 backpack sprayer at 2.0 gal./1000 ft^2 (i.e., 81.5 liters/1000 m^2) with a single 8003E nozzle. Two doses of each fungicide were tested. Plots were inoculated with Sclerotinia homoeocarpa (Dollar Spot) 2 days after the fungicides were applied by placing two 1-in. (2.5-cm) pieces of infested fescue leaves on each flat. Results are presented in Table 1 (where B+a number represents days after application of the herbicide component).

[5] = test system: Rhizoctonia solani; assay: Brown Patch infection of bentgrass 'Crenshaw' turf flats (Example 6); format: in vivo; conditions: for % Brown Patch infection: imidacloprid alone 481 g/Ha
Method: Bentgrass var. ‘Crenshaw’ was seeded in 10 in.×12 in. (25 cm×30 cm) peat flats containing steam sterilized 80/20 greens mix. Flats were watered daily with an overhead misting system. Plots were fertilized on 11/20 with 200 ml of a 288 ppm 20-20-20 Regal Green fertilizer solution. Treatments were applied with a CO2 backpack sprayer at 2.0 gal./1000 ft^2 (i.e., 81.5 liters/1000 m^2) and a single 8003E nozzle. Imidacloprid was applied on 16 days after seeding and fungicides applied 21 days after seeding and 35 days after seeding. Plots were inoculated 18 days after seeding with 0.25 g of fescue seed infected with Rhizoctonia solani. Results are presented in Table 4 (where B+a number represents days after application of the herbicide component).

[6] = test system: powdery mildew; assay: Greenhouse trial, powdery mildew severity on Kentucky bluegrass (Example 4); format: in vivo, Erysiphe graminis; conditions: for Powdery mildew rating: 1 = best (no disease) to 9 = dead
[7] = test system: Curvularia; assay: Curvularia on bermudagrass 'TifEagle', golf course field trial (Example 8); format: in vivo; conditions: for % turf infected with disease (Curvularia): imidacloprid 0.4 lb/A single application, fungicide programs every two weeks
Method: Established bermudagrass (cv. ‘TifEagle’) on a golf course in Florida was treated in late spring with imidacloprid at 0.4 lb/A (i.e., 0.45 kg/Ha). For comparison, two different fungicide spray programs were applied to nearby plots. The two fungicide spray programs were (1) fosetyl+iprodione at (4 oz.+4 oz.) per 1000 ft^2 [(1.2 g+1.2 g) per m^2] alternated with fosetyl+trifloxystrobin at (4 oz.+0.15 oz.) per 1000 ft^2 [(1.2 g+46 mg) per m^2], and (2) fosetyl+iprodione at (4 oz.+4 oz.) per 1000 ft^2 [(1.2 g+1.2 g) per m^2] alternated with flutolanil at 2.2 oz product/1000 ft^2 (0.67 g) per m^2). The fungicide applications were made every two weeks. In comparison, the imidacloprid-treated plots received only a single application of active ingredient.
At the time of treatment, Curvularia disease was just beginning to develop (i.e., the mean percent infection in all plots was 3% of the turf cover). The spread of the disease was monitored weekly for twelve weeks, and turf quality, measured on a 0 to 9 scale (0=dead turf and 9=perfect quality). […] Effects of the various treatments on disease incidence are described in Table 6 (where A+a number represents days after application of imidacloprid). Data are expressed as % turf infected with disease.

[8] = test system: Curvularia; assay: Disease infection of turf flats treated with Merit 75 WP (Example 5); format: in vivo; conditions: for percent infection (Curvularia): Kentucky bluegrass
Method: Four sets of twenty-four 10 in.×12 in. (25 cm×30 cm) flats were filled with sterilized sand and each set was seeded with either Kentucky bluegrass, Crenshaw L-93 bentgrass, bermudagrass, or K-31 tall fescue. Each flat was fertilized weekly with 20-20-20 soluble fertilizer at 0.144 g per 200 ml of water (equivalent to 4 lbs/year/acre). The trial was replicated once.
Twelve flats in each set were treated with Merit 75 WP equivalent to 8.6 oz/acre per 80 gal. (ca. […] per 100 liter) of water (spray application) for each turf variety and twelve flats remained untreated. Replicate 1 was treated 25 days after seeding and Replicate 2 was treated 28 days after seeding. Disease outbreaks began approximately the time of treatment. Assessments of the infection percentage were done at 13 and 25 days after treatment. […] The percent disease infection at the first and second assessments in the first trial was 22 and 26%, respectively, while the percent infection in the imidacloprid treated flats was 1 and 8% at the first and second assessment dates, respectively. In the second trial, disease pressure was lower, but the untreated flats had 3 and 8% infection at the first and second assessment dates, whereas the imidacloprid treated flats had 0.5 and 2% at the two assessment dates.

In the case of `O=[N+]([O-])NC1=NCCN1Cc1ccc(Cl)nc1` [imidacloprid], the “% Pythium” value ([1]; A + 8) is reported as 17.5%, the “% Pythium” value ([1]; A + 11) is reported as 32.5% and the “% Pythium” value ([1]; A + 15) is reported as 40.0%. The “% Pythium” value ([1]; A + 18) was 38.8%, the “% Pythium” value ([1]; A + 22) was 25.0% and the “% Pythium” value ([1]; A + 28) was 12.0%. The “Pythium in plots treated with imidacloprid alone versus untreated plots” value ([1]; from 11 days after treatment on, in words) was “much less Pythium than did the untreated plots”, the visual vigor ratings [2] was “visual vigor ratings indicate a benefit from the imidacloprid treatments” and the “% Pythium” value ([3]; B + 6) was 11.7%. The “% Pythium” value ([3]; B + 8) was 20.0%, the “% Pythium” value ([3]; B + 14) was 36.7% and the “% Dollar Spot” value ([4]; B + 7) was 16.7%. For the same compound, the “% Dollar Spot” value ([4]; B + 10) was 28.3%, the “% Dollar Spot” value ([4]; B + 13) was 35.0% and the “% Dollar Spot” value ([4]; B + 17) was 38.3%. For the same compound, the “% Dollar Spot” value ([4]; B + 21) was 41.7%, the “% Dollar Spot” value ([4]; B + 24) was 48.3% and the “effect of imidacloprid alone on incidence of disease (Dollar Spot)” value ([4]; imidacloprid alone, in words) was “no affect on incidence of disease”. The “% Brown Patch infection” value ([5]; B + 6) was 53.3%, the “% Brown Patch infection” value ([5]; B + 8) was 73.3% and the “% Brown Patch infection” value ([5]; B + 10) was 80.0%. The “effect of imidacloprid alone on the disease (Brown Patch)” value ([5]; in words) was “no effect on the disease”, the Powdery mildew rating ([6]; 2 Weeks after treatment, 0.25 lbs/A (0.28 kg/Ha)) was 3.4 and the Powdery mildew rating ([6]; 2 Weeks after treatment, 0.4 lbs/A (0.45 kg/Ha)) was 3.4. For the same compound, the Powdery mildew rating ([6]; 2 Weeks after treatment, 1.0 lbs/A (1.12 kg/Ha)) was 3.4, the “disease severity rating (powdery mildew)” value ([6]; 6 WAT evaluation, treatments of imidacloprid, untreated 4.2, 1 to 9 scale) was 3.1 and the Powdery mildew rating ([6]; 6 Weeks after treatment, 0.25 lbs/A (0.28 kg/Ha)) was 3.2. The Powdery mildew rating ([6]; 6 Weeks after treatment, 0.4 lbs/A (0.45 kg/Ha)) was 3.1, the Powdery mildew rating ([6]; 6 Weeks after treatment, 1.0 lbs/A (1.12 kg/Ha)) was 3.1 and the “% turf infected with disease (Curvularia)” value (shortened to “% turf infected with disease”) ([7]; A + 1) was 1%. The “% turf infected with disease” value ([7]; A + 8) was 1%, the “% turf infected with disease” value ([7]; A + 15) was 1% and the “% turf infected with disease” value ([7]; A + 22) was 0%. For the same compound, the “% turf infected with disease” value ([7]; A + 29) was 0%, the “% turf infected with disease” value ([7]; A + 37) was 0% and the “% turf infected with disease” value ([7]; A + 43) was 0%. The “% turf infected with disease” value ([7]; A + 51) was 16%, the “% turf infected with disease” value ([7]; A + 58) was 21% and the “% turf infected with disease” value ([7]; A + 66) was 54%. For the same compound, the “% turf infected with disease” value ([7]; A + 72) was 30%, the “% turf infected with disease” value ([7]; A + 79) was 34% and the “% turf infected with disease” value ([7]; A + 86) was 38%. For the same compound, the “% turf infected with disease” value ([7]; A + 94) was 16%, the “development of Curvularia disease incidence compared with the other plots” value ([7]; after 8 WAT to end of trial, in words) was “increased at a much slower rate than did the untreated control” and the “percent infection (Curvularia)” value ([8]; first trial, first assessment (13 days after treatment), untreated 22%) was 1%. The “percent infection (Curvularia)” value ([8]; first trial, second assessment (25 days after treatment), untreated 26%) was 8%, the “percent infection (Curvularia)” value ([8]; second trial, first assessment, untreated 3%) was 0.5% and the “percent infection (Curvularia)” value ([8]; second trial, second assessment, untreated 8%) was 2%. The “control of the other diseases on the other turf varieties” value ([8]; bentgrass, bermudagrass, tall fescue, either trial, in words) was “did not provide control of the other diseases” and the “control of Curvularia on the Kentucky bluegrass” value ([8]; both replicates, in words) was “good control of Curvularia”.
